# Experimental data published in US20250188083A1, “Modulators of Histone Acetyltransferase 1 and Methods of Treatment Thereof” (The Board of Trustees of the Leland Stanford Junior …, priority 2021, published 2025).
# “And” between values parts separate entries of the source, which are not always exact repeats. Identical values can stand only once.
# Key:
# [1] = target: HAT1/Rbap46 enzyme complex (Homo sapiens, UniProt O14929); experiment: HAT1 acetylation (acetyl-click) assay with 4-pentynoyl-CoA; assay type: biochemical; conditions: for HAT1 inhibitory activity of flavonoids in dose-response: dose-response curves, FIG. 13; for HAT1 inhibitory activity in library screens (rank, active or inactive): single-dose screening; for IC50: dose-response, 4-pentynoyl-CoA co-factor, read-out: IC50 for HAT1 enzymatic inhibition; for inhibition of HAT1/Rbap46 by bi-substrate inhibitors: 10 μM
# Description: FIG. 6 provides a schematic of a histone acetyltransferase 1 (HAT1) acetylation assay in accordance with various embodiments. HAT1/Rbap46 purified enzyme complex is incubated with 4-pentynoyl-CoA and histone H4 N-terminal biotinylated peptide in the presence or absence of test compounds. Then reaction products are bound to neutravidin 96-well plate, washed, functionalized by copper(I)-catalyzed cycloaddition click chemistry with biotin-azide. Then, streptavidin-HRP is bound and detected by amplex red fluorescence reaction.
# Percent inhibition was calculated according the following formula: […]
# CBP = target: T1, CBP (Homo sapiens, UniProt Q92793); experiment: Other acetyltransferase assay (3H-Acetyl-CoA, Creative Biomart); assay type: biochemical; conditions: 10-point dose curve from 100 μM
# T1 construct: Creative Biomart (assay service)
# Description: (§1) Acetylation assays on 7 targets (CBP, GCN5, KAT5, MYST2/KAT7, MYST4/KAT6b, p300, pCAF) was performed by Creative Biomart. […] Reaction buffer was 50 mM Tris-HCL, 0.1 mM EDTA, 250 mM NaCl, 1 mM DTT, 1% DMSO, pH 8.0, using 3 μM 3H-Acetyl-CoA, reaction time of 1 hour at 30 degrees Celsius, with substrate conversion rate between 5-20%. Enzymes were diluted in reaction buffer, followed by addition of compound with Acoustic Technology in nanoliter range, incubated at room temperature for 20 minutes, then 3H-Acetyl-CoA was added. Reaction was incubated at 30 minutes at 30 degrees Celsius, then transferred to filter paper for detection.
# GCN5 = target: T2, GCN5 (Homo sapiens, UniProt Q92830); experiment: as above; assay type: biochemical; conditions: 10-point dose curve from 100 μM
# T2 construct: Creative Biomart (assay service)
# Description: as §1
# KAT5 = target: T3, KAT5 (Homo sapiens, UniProt Q92993); experiment: as above; assay type: biochemical; conditions: 10-point dose curve from 100 μM
# T3 construct: Creative Biomart (assay service)
# Description: as §1
# MYST2/KAT7 = target: T4, MYST2/KAT7 (Homo sapiens, UniProt O95251); experiment: as above; assay type: biochemical; conditions: 10-point dose curve from 100 μM
# T4 construct: Creative Biomart (assay service)
# Description: as §1
# MYST4/KAT6b = target: T5, MYST4/KAT6b (Homo sapiens, UniProt Q8WYB5); experiment: as above; assay type: biochemical; conditions: 10-point dose curve from 100 μM
# T5 construct: Creative Biomart (assay service)
# Description: as §1
# PCAF = target: T6, PCAF (Homo sapiens, UniProt Q92831); experiment: as above; assay type: biochemical; conditions: 10-point dose curve from 100 μM
# T6 construct: Creative Biomart (assay service)
# Description: as §1
# p300 = target: T7, p300 (Homo sapiens, UniProt Q09472); experiment: as above; assay type: biochemical; conditions: 10-point dose curve from 100 μM
# T7 construct: Creative Biomart (assay service)
# Description: as §1
# HCC1806 cell line = experiment: Cell growth inhibition (CellTiter-Blue / resazurin); assay type: cell-based, human
# Description: (§2) hTert-HME1, HCC1806, HCC1937, A549 were maintained in a humified incubator at 37deg C. with 5% CO2. HCC1806 and HCC1937 were grown in RPMI with 10% FBS and 1% penicillin-streptomycin. A549 was grown in F-12 media with 10% FBS and 1% penicillin-streptomycin. hTert-HME1 was grown in Mammary Epithelial Growth Media (PromoCell). Drug treatments were performed in 96-well plates. Cells were seeded at 5000 cells per well, then allowed to attach overnight. Drug dilutions were made in 96-well plates then transferred to plate containing cells and incubated for 48-72 hours. Cell density was then determined by CellTiter-Blue (Promega). For capillary immunoassays hTert-HME1 5E5 cells were seeded in 10 cm plates and cultured for 48 hours, then cells were washed 2× in PBS and EGF-free MEGM was added overnight. The next day, cells were treated in EGF-free media with 1% dialyzed BSA+drug for 30 minutes, then EGF was added to the plate and cells were cultured for 8, 10 and 12 hours before harvesting. Microcapillary immunoassays were performed on a SimpleWestern Wes instrument using H4K12-Ac antibody (Abcam ab46983) at 1:25 dilution, H4K5-Ac antibody (Millipore 07-327) at 1:50 dilution, HAT1 (Abcam ab194296) at 1:50 dilution, nascent H4 (Abcam ab7311) at 1:10 dilution, nascent H3 (Abcam ab18521) at 1:50 dilution, actin (Thermo-Fisher MA5-15452) at 1:100 dilution.
# A549 cell line = experiment: as above; assay type: cell-based; conditions: Homo sapiens
# Description: as §2
# HCC1937 cell line = experiment: as above; assay type: cell-based; conditions: Homo sapiens
# Description: as §2
# [2] = test system: H4 lysine 5 and 12 acetylation; experiment: Capillary immunoassay of H4 acetylation in hTert-HME1 cells; assay type: cell-based, human
# Description: At some timepoints, decreased H4 protein levels were also observed, consistent with prior studies of the effects of HAT1 depletion (J. J. Gruber, et al., Mol Cell 75:711-724 e5, 2019, cited supra).
# as §2, with “Microcapillary immunoassays were performed on a SimpleWestern Wes instrument using H4K12-Ac antibody (Abcam ab46983) at 1:25 dilution, H4K5-Ac antibody (Millipore 07-327) at 1:50 dilution, HAT1 (Abcam ab194296) at 1:50 dilution, nascent H4 (Abcam ab7311) at 1:10 dilution, nascent H3 (Abcam ab18521) at 1:50 dilution, actin (Thermo-Fisher MA5-15452) at 1:100 dilution.” left out
# [3] = Fluorescence imaging of harvested organs (compound distribution); assay type: in vivo, mice; conditions: 24 hours
# Text: Organs were harvested and excited with UV light (230 nm) and imaged with a yellow-green filter.
# [4] = mouse, in vivo, ip
# A549 tumors = experiment: A549 tumor growth in NSG mice
# Description: P-value calculated by least squares regression and extra sum-of-squares F-test. N=5 mice per group.
# A549 cells were infected with 3 lentiviral shRNAs targeting the human HAT1 mRNA (Origene #TL312517). Six-to-eight-week-old NSG female mice (Jackson Labs #005557) were shaved, then 500,000 A549 tumor cells were injected into bilateral flanks and tumor growth was assessed by tri-dimensional tumor measurements to yield tumor volumes. For drug treatments, analog 2016 was resuspended in a 1:1 mixture of PEG-400 and PBS+1% dialyzed BSA-0.2 μm-filtered (MilliporeSigma #12-660-910GM). Intraperitoneal injections (200 μL) were performed with a 21-G needle. Tumor measurements were performed with digital calipers.
# [5] = target: T8, bacterially-expressed recombinant HAT1 (Homo sapiens, UniProt O14929); conditions: Ngo, Brown, Zheng 2019; read-out: Ki towards recombinant HAT1; cited from earlier work
# T8 sequence (O14929 1-419): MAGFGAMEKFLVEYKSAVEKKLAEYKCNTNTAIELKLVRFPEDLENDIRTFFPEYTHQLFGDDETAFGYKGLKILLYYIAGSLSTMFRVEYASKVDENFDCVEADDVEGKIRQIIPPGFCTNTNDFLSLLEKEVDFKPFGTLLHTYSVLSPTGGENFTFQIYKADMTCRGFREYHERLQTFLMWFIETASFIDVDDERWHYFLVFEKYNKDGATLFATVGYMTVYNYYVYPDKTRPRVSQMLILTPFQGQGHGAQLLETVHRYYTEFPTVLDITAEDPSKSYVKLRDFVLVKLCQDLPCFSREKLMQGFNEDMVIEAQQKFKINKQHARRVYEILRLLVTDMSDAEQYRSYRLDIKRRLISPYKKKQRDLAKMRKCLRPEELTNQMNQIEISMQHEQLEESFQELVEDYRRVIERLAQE
# Sequence of HAT1/Rbap46 enzyme complex (Q16576 whole entry partner, one chain of several): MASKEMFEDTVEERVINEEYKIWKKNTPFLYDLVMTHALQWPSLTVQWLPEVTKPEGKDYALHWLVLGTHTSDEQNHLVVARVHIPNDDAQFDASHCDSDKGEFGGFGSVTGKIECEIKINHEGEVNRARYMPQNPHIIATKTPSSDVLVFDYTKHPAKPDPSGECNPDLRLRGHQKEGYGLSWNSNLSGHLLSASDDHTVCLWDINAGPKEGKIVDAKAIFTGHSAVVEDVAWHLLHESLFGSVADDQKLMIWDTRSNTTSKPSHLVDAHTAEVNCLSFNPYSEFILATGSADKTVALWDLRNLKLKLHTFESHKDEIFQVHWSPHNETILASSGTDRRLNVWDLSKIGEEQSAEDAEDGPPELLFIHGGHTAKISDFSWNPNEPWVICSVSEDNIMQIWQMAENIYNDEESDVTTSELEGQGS
# T6 sequence (Q92831 whole entry): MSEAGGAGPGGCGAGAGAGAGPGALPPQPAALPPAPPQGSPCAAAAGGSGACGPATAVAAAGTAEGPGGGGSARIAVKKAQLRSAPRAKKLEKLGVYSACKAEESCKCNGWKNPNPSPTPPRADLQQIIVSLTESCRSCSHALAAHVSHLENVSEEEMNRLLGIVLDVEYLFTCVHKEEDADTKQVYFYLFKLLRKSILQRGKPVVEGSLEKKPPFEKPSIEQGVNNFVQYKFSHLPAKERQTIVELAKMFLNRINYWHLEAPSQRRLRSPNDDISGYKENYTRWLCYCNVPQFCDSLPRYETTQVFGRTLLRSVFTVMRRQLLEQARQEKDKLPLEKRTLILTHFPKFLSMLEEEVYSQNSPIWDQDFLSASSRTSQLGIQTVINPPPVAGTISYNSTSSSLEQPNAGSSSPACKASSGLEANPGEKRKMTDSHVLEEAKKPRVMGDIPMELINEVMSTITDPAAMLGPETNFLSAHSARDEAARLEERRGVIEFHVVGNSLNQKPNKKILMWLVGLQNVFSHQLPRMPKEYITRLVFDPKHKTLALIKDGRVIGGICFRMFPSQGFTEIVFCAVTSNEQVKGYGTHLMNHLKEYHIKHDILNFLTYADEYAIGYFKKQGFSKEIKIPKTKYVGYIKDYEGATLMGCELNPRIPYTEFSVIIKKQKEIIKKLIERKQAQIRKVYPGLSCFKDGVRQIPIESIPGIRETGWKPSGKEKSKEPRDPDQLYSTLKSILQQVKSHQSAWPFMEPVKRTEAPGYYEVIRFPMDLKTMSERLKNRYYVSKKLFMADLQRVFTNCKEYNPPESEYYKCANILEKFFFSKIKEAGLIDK
# T5 sequence (Q8WYB5 whole entry): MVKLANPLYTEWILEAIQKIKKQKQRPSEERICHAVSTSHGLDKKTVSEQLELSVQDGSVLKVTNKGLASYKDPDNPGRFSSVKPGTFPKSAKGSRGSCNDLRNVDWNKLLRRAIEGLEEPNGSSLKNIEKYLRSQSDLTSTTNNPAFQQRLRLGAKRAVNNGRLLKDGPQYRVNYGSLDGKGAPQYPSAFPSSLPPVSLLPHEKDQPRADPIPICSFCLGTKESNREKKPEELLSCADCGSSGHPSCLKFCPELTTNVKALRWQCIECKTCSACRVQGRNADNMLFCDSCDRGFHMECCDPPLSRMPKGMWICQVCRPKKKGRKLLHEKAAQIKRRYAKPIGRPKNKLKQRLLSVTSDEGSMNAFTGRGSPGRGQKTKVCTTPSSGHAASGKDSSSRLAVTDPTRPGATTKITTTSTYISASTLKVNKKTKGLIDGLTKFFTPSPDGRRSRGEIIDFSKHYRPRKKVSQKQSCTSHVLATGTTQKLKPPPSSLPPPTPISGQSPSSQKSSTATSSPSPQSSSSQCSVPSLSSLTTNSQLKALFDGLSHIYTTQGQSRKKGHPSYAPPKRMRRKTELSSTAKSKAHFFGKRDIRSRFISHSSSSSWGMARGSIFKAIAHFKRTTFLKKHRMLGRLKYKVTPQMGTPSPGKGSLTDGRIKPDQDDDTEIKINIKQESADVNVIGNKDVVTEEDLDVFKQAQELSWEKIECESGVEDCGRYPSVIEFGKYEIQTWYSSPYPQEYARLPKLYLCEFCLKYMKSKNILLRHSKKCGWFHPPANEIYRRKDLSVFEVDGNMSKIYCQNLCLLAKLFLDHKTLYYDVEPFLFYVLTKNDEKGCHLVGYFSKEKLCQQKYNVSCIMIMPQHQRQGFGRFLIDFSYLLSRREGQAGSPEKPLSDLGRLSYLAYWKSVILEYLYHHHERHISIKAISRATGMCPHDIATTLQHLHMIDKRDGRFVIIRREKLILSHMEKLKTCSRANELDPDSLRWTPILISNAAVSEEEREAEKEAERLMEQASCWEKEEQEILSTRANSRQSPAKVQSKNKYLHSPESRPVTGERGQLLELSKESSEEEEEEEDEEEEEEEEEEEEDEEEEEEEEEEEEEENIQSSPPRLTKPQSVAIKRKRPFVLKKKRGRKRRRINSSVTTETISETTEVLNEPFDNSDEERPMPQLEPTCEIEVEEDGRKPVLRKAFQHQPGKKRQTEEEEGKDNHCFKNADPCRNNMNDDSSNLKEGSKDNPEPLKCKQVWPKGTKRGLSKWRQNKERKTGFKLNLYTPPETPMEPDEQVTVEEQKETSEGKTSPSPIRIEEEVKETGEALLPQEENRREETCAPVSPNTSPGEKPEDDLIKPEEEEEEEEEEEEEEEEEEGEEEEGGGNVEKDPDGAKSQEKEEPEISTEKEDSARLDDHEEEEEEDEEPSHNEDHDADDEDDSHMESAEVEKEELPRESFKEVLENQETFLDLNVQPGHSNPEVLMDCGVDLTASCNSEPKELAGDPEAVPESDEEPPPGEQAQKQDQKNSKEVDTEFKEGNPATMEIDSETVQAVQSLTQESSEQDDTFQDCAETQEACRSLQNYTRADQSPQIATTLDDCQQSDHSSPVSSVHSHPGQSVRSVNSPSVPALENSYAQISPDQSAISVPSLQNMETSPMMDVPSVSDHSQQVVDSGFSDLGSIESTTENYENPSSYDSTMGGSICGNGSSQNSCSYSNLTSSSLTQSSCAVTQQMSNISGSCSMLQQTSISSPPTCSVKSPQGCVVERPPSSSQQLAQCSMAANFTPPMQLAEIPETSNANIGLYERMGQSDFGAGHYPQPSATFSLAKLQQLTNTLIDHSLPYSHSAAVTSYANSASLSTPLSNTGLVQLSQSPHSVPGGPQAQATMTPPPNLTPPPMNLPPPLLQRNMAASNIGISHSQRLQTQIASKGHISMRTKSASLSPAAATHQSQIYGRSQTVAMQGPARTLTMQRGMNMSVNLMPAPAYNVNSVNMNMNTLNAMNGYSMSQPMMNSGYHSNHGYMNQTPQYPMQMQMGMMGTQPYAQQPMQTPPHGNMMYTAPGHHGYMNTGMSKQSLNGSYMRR
# T4 sequence (O95251 whole entry): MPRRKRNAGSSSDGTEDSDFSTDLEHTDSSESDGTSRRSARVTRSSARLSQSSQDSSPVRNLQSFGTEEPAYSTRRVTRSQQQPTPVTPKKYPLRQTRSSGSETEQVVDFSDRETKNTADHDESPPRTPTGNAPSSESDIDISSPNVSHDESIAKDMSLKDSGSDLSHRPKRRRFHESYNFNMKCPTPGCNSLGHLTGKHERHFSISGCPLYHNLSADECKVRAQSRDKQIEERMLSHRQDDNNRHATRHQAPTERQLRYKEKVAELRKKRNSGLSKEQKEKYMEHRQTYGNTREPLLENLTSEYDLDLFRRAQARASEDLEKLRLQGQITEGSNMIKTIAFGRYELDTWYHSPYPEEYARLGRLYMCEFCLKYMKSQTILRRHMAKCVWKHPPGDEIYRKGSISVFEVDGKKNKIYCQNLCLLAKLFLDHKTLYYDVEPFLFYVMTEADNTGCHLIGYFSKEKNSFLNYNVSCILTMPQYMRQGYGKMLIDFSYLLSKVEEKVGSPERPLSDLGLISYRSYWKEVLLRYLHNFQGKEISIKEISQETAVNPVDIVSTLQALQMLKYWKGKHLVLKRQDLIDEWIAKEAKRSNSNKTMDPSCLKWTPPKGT
# T2 sequence (Q92830 whole entry): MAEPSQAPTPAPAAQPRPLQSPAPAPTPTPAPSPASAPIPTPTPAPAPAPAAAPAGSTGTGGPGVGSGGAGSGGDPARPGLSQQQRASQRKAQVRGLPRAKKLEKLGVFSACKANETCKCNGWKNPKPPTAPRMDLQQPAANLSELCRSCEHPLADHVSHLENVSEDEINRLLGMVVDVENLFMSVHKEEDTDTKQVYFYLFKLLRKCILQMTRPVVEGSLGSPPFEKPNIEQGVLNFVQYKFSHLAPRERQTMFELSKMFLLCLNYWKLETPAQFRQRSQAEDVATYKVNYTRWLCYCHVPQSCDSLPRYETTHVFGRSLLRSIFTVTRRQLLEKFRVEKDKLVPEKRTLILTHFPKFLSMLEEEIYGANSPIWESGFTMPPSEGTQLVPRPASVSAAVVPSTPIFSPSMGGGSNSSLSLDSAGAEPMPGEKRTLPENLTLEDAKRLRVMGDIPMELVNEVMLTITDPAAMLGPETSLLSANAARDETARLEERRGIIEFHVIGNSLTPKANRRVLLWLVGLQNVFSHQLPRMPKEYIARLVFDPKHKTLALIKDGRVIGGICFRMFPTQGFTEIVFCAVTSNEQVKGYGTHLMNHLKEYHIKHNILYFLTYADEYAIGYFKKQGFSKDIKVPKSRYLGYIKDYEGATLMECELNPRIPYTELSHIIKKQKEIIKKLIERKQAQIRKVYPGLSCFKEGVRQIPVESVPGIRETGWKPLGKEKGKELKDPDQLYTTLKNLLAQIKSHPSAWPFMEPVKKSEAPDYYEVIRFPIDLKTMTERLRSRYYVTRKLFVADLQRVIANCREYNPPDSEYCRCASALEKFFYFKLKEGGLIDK
compound,measurement,setting,value
"Cc1cc2nc3c(=O)[nH]c(=O)nc-3n(C[C@H](O)[C@H](O)[C@H](O)COP(=O)(O)OP(=O)(O)OC[C@H]3O[C@@H](n4cnc5c(N)ncnc54)[C@H](O)[C@@H]3O)c2cc1C [FAD, flavin-adenine-dinucleotide]",HAT1 inhibitory activity of flavonoids in dose-response,[1],no detectable inhibitory activity
"Cc1cc2nc3c(=O)[nH]c(=O)nc-3n(C[C@H](O)[C@H](O)[C@H](O)COP(=O)(O)O)c2cc1C [FMN, flavin-mononucleotide]",HAT1 inhibitory activity of flavonoids in dose-response,[1],no detectable inhibitory activity
"CCc1cc2c(cc1Cl)nc1c(=O)[nH]c(=O)nc-1n2CCOCC(C)C [JG-2016, 7-chloro-8-ethyl-10-(2-isobutoxyethyl)benzo[g]pteridine-2,4(3H, 10H)-dione]",IC50,CBP,90.4 µM
same,inhibitory activity towards GCN5,GCN5,minimal or undetectable inhibitory activity
same,inhibitory activity towards KAT5,KAT5,minimal or undetectable inhibitory activity
same,IC50,MYST2/KAT7,84.8 µM
same,inhibitory activity towards MYST4/KAT6b,MYST4/KAT6b,minimal or undetectable inhibitory activity
same,inhibitory activity towards PCAF,PCAF,minimal or undetectable inhibitory activity
same,IC50,p300,74.2 µM
same,cell growth inhibition,HCC1806 cell line,among the most potent inhibitors of cell growth
same,EC50,HCC1806 cell line; Homo sapiens,10.4 µM
same,EC50,A549 cell line,1.9 µM
same,IC50,A549 cell line; read-out: IC50 required to impair cell proliferation,1.9 µM
same,EC50,HCC1937 cell line,29.8 µM
same,time course of H4 acetylation inhibition,"[2]; hTert-HME1, EGF stimulation 8, 10, 12 hours",on-target inhibition as early as 8 hours post-treatment that persisted through 12 hours
same,inhibition of H4 lysine 5 and 12 acetylation,"[2]; hTert-HME1, dose series",dose-dependent inhibition
same,tissue accumulation by fluorescence imaging,"[3]; healthy mice, 500 mg/kg i.p.",high accumulation adipose tissue
same,tissue accumulation by fluorescence imaging,"[3]; mice bearing bilateral A549 tumors, 100 mg/kg once","compound accumulation in subcutaneous adipose tissues (SAT), visceral adipose tissue (VAT), and tumors"
same,tolerated single intraperitoneal dose with minimal toxicity,[4],up to 250 mg/kg
same,toxicity signs,[4]; 500 mg/kg,signs of distress
same,tumor growth versus vehicle,A549 tumors; 50 mg/kg and 100 mg/kg i.p. once every three days from day 13,significantly impaired tumor growth
same,dose-response of tumor growth suppression,A549 tumors; higher dose (100 mg/kg) compared to lower dose (50 mg/kg),more profound suppression of tumor growth
CCc1cc2c(cc1Cl)nc1c(=O)[nH]c(=O)nc-1n2CCOCc1cccc(F)c1 [JG-2069],"HAT1 inhibitory activity in library screens (rank, active or inactive)",[1],interfered with enzyme inhibition
CCc1cc2c(cc1Cl)nc1c(=O)[nH]c(=O)nc-1n2CCCOc1cccc(C#N)c1 [JG-2088],"HAT1 inhibitory activity in library screens (rank, active or inactive)",[1],interfered with enzyme inhibition
CCc1cc2c(cc1Cl)nc1c(=O)[nH]c(=O)nc-1n2CCOCc1ccc(C#N)cc1 [JG-2092],"HAT1 inhibitory activity in library screens (rank, active or inactive)",[1],interfered with enzyme inhibition
CC(=O)OCCn1c2nc(=O)[nH]c(=O)c-2nc2cc(C)c(C)cc21 [NSC-3064],"HAT1 inhibitory activity in library screens (rank, active or inactive)",[1],top hit
O=c1nc2n(C[C@H](O)[C@H](O)[C@H](O)CO)c3cc(Cl)c(Cl)cc3nc-2c(=O)[nH]1 [NSC-42186],IC50,[1],60.5 µM and 38 µM
same,% inhibition of HAT1 activity,[1]; single dose 100 μM,31%
COC1=C(N)C(=O)c2nc(-c3nc(C(=O)O)c(C)c(-c4ccc(OC)c(OC)c4O)c3N)ccc2C1=O [NSC-83950],"HAT1 inhibitory activity in library screens (rank, active or inactive)",[1],inhibitory activity
NC(=S)c1cn(C2OC(CO)C(O)C2O)c2ncnc(N)c12 (stereo not drawn) [NSC-105827],"HAT1 inhibitory activity in library screens (rank, active or inactive)",[1],inhibitory activity
O=C(O)Cc1ccc(N=Nc2c(O)c(C(=O)O)cc3ccccc23)cc1 [NSC-156563],"HAT1 inhibitory activity in library screens (rank, active or inactive)",[1],inhibitory activity
Cc1cc2cc3c(=O)[nH]c(=O)cc-3n(CC(O)C(O)C(O)CO)c2cc1C (stereo not drawn) [NSC-275266],"HAT1 inhibitory activity in library screens (rank, active or inactive)",[1],fifth best hit
Oc1ccccc1-c1nc2c3ccccc3c3ccccc3c2[nH]1 [NSC-332670],"HAT1 inhibitory activity in library screens (rank, active or inactive)",[1],inhibitory activity
Cc1cc2nc3[nH]c(=O)[nH]c(=O)c3nc2cc1C [di-methyl-alloxazine],HAT1 inhibitory activity of flavonoids in dose-response,[1],no detectable inhibitory activity
CC(C)(COP(=O)(O)OP(=O)(O)OC[C@H]1O[C@@H](n2cnc3c(N)ncnc32)[C@H](O)[C@@H]1OP(=O)(O)O)[C@@H](O)C(=O)NCCC(=O)NCCSC(=O)[C@@H](N)CCCCN [lysyl-CoA],inhibition of HAT1/Rbap46 by bi-substrate inhibitors,[1],no inhibitory activity
CCCC(=O)OC[C@@H](OC(=O)CCC)[C@@H](OC(=O)CCC)[C@H](Cn1c2nc(=O)[nH]c(=O)c-2nc2cc(C)c(C)cc21)OC(=O)CCC [riboflavin tetrabutyrate],IC50,[1],17 µM
"Cc1cc2nc3c(=O)[nH]c(=O)nc-3n(C[C@H](O)[C@H](O)[C@H](O)CO)c2cc1N(C)C [roseoflavin, reference compound]","HAT1 inhibitory activity in library screens (rank, active or inactive)",[1],inactive
same,cell growth inhibition,HCC1806 cell line,strong cell growth inhibitory properties
H4K12-CoA: co-enzyme A chemically ligated to the ζ-amine of lysine 12 in the histone H4 N-terminal 20-mer peptide,inhibition of HAT1/Rbap46 by bi-substrate inhibitors,[1],robust inhibition
same,IC50,[1],~1 µM
same,cell growth inhibition,HCC1806 cell line,no inhibitory activity
same,Ki,[5],~0.001 µM
